Results on ten molecules are retold here after PubChem BioAssay (NCI).

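Method: 48-hour compound exposure of cells in 96-well plates, five concentrations, linear interpolation of endpoints. At the GI50, growth is halved. TGI: concentration producing complete growth inhibition.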 A value given as a limit tells only on which side of the number the result lay.

Common to all, as to experiment: NCI tumour cell line growth inhibition, 48 h
Assay [1] has as its system A549 NSCLC.
Assay [2] relates to HOP-92 NSCLC.
The test system of assay [3] is MCF7 breast.
In assay [4] the test system is MOLT-4 leukemia.
In assay [5] the test system is NCI/ADR-RES ovarian.
In assay [6] the test system is SK-MEL-28 melanoma.
Assay [7] has as its system U251 CNS.
The test system of assay [8] is A498 renal.

For `N#CC1=C(N)NC(=S)C(C#N)C12Nc1ccccc1S2` (configuration not stated), the GI50 in assay [1] was 23.1 µM; in assay [2], 60.8 µM; in assay [3] it was 8.14 µM; in assay [4], > 100 µM; in assay [5] it was 14.3 µM; in assay [6], 24.3 µM. The GI50 in assay [7] was 18.3 µM. In addition, the TGI in assay [1] is 53.1 µM; in assay [2] it was > 100 µM; in assay [3] it was > 100 µM; in assay [4], > 100 µM; in assay [5] it was 43.7 µM; in assay [6] it was 56.7 µM. In assay [7], this molecule had a TGI of 40.2 µM.

For `Cc1cc(Nc2cc(N3CCN(C)CC3)nc(C#Cc3ccccc3)n2)n[nH]1`, the GI50 is 0.703 µM in assay [8]; 2.81 µM in assay [1]; 0.843 µM in assay [2]; 2.31 µM in assay [3]; 3.46 µM in assay [4]; 4.98 µM in assay [5]. The results for the GI50 in assay [6] and in assay [7] were 5.05 µM and 3.52 µM, respectively. Moreover, the TGI in assay [8] was found to be 3.68 µM; in assay [1] it was 13.3 µM; in assay [2], 4.84 µM; in assay [3], 13.1 µM; in assay [4], 19.2 µM; in assay [5], 28.8 µM. Besides, the figures for the TGI in assay [6] and in assay [7] were 18.3 µM and 16.9 µM, respectively.

As to `Cc1cc(C(=O)Nc2cc(Nc3ncccc3-c3ncnc4nc[nH]c34)ccc2F)cc(C(C)(C)C#N)c1`, the GI50 was 0.0748 µM in assay [8]; 3.77 µM in assay [1]; 0.145 µM in assay [2]; 5.07 µM in assay [3]; 3.45 µM in assay [4]; 2.81 µM in assay [5]. Also, the results for the GI50 in assay [6] and in assay [7] were 0.0402 µM and 3.74 µM, respectively. Moreover, the TGI in assay [8] is 0.491 µM; in assay [1], > 100 µM; in assay [2] it was 1.45 µM; in assay [3] it was > 100 µM; in assay [4], > 100 µM; in assay [5], > 100 µM. Further, the TGI in assay [6] and in assay [7] was > 100 µM each time.

As to `N=C(N)SCC(=O)O`, the TGI in assay [8], in assay [1], in assay [2], in assay [3], in assay [4] and in assay [5] was > 100 µM throughout. The TGI in assay [6] and in assay [7] was > 100 µM each time.

As to `COc1ccc(C2NC(=S)NC3=C2COc2ccc(F)cc23)cc1OC` (configuration not stated), the GI50 is 13.4 µM in assay [8]; 10.9 µM in assay [1]; 41.7 µM in assay [2]; 31.2 µM in assay [3]; 54.6 µM in assay [4]; 18.9 µM in assay [5]. Moreover, the figures for the GI50 in assay [6] and in assay [7] were 41.2 µM and 12.7 µM, respectively. Besides, the TGI in assay [8] was 36.1 µM; in assay [1] it was 36.7 µM; in assay [2] it was > 100 µM; in assay [3] it was > 100 µM; in assay [4] it was > 100 µM; in assay [5] it was 44.4 µM. For the same molecule, the values for the TGI in assay [6] and in assay [7] were > 100 µM and 29.5 µM, respectively.

Regarding `NC1(C(=O)O)CSSC1`, the GI50 in assay [8] is 2.53 µM; in assay [1] it was 3.37 µM; in assay [2] it was 14.3 µM; in assay [3], 3.65 µM; in assay [4], 5.61 µM; in assay [5], 3.46 µM. Besides, the GI50 in assay [6] was 3.14 µM; in assay [7] it was 3.58 µM. For the same molecule, the TGI in assay [8] was 7.27 µM; in assay [1], > 100 µM; in assay [2], 68.7 µM; in assay [3] it was 23.9 µM; in assay [4] it was > 100 µM; in assay [5], 27.7 µM. The results for the TGI in assay [6] and in assay [7] were 10.7 µM and 22.6 µM, respectively.

Turning to `C=C[C@@]1(C)CC(=O)[C@]2(O)[C@@]3(C)[C@@H](O)CCC(C)(C)[C@@H]3[C@H](O)[C@@H](OC(C)=O)[C@@]2(C)O1`, the TGI in assay [8], in assay [1], in assay [2], in assay [3], in assay [4] and in assay [5] was > 100 µM throughout. Moreover, the TGI in assay [6] and in assay [7] was > 100 µM throughout.

As to `O=C(Nc1cccc(Cl)c1)c1cc(Cl)ccc1O`, the GI50 is 0.256 µM in assay [8]; 2.67 µM in assay [1]; 0.169 µM in assay [2]; 1.75 µM in assay [3]; 1.84 µM in assay [4]; 1.64 µM in assay [5]. The GI50 in assay [6] is 0.415 µM; in assay [7], 0.841 µM. The TGI was 0.764 µM in assay [8]; > 79.3 µM in assay [1]; 0.571 µM in assay [2]; > 26.6 µM in assay [3]; 5.04 µM in assay [4]; > 29.4 µM in assay [5]. The TGI in assay [6] is 3.77 µM; in assay [7] it was > 38.2 µM.

With `CCCCCCCCCCCCNC(=O)[C@H]1CSC(c2ccsc2)N1` (some centres not stated), the GI50 is 9.62 µM in assay [8]; 6.77 µM in assay [1]; 1.01 µM in assay [2]; 0.879 µM in assay [3]; 0.895 µM in assay [4]; 1.23 µM in assay [5]. The GI50 in assay [6] was 0.814 µM; in assay [7], 0.875 µM. The TGI in assay [8] worked out at 17.1 µM; in assay [1], 13.7 µM; in assay [2], 2.02 µM; in assay [3] it was 1.71 µM; in assay [4], 1.84 µM; in assay [5], 2.56 µM. Also, the TGI was 1.54 µM in assay [6] and 1.61 µM in assay [7].

In the case of `CC(C)c1ccc2c(c1)c(SC(C)(C)C)c(CC(C)(C)C(=O)O)n2Cc1ccc(Cl)cc1`, the GI50 in assay [8] is 10.8 µM; in assay [1], 3.27 µM; in assay [2] it was 7.49 µM; in assay [3], 5.14 µM; in assay [4] it was 1.64 µM; in assay [5], 10.1 µM. The GI50 in assay [6] is 11.3 µM; in assay [7], 6.8 µM. In addition, the TGI in assay [8] came out at 23.3 µM; in assay [1] it was 14.1 µM; in assay [2], 22.5 µM; in assay [3], 19.4 µM; in assay [4] it was 26.3 µM; in assay [5], 26.7 µM. Further, the results for the TGI in assay [6] and in assay [7] were 25.1 µM and 19.4 µM, respectively.
